SMILES strings stand for the structures. Converted amounts (≈) assume the structure as drawn.

One experiment deals with E. coli C14. The experiment can be described thus: Microtitre assay/urine, MIC, E. coli C14. The class given is cell-based. As to conditions: Escherichia coli. From the text: (§1) Tables 1 and 2 below show examples of the MIC values of the compound of Example 1 compared with norfloxacin.
(§2) Microtitre assay/urine (80% pooled human urine,
(§3) 20% isosensitest medium)

The test system of another experiment is Staph. 1756. The experiment can be described thus: MIC of the compound of Example 1 compared with norfloxacin, Staph. 1756. The experiment is classed as cell-based. The conditions noted are these: Staphylococcus.
Source text: as §1

The test system of a further experiment is Staph. 133. The experiment can be described thus: MIC of the compound of Example 1 compared with norfloxacin, Staph. 133. The experiment is classed as cell-based. As to conditions: Staphylococcus.
Source text: as §1

The subject of a further experiment is Staph. 25151. Nature of the experiment: Microtitre assay/urine, MIC, Staph. 25151. The class given is cell-based. As to conditions: Staphylococcus.
Source text: as §1, §2, §3

In the next experiment the test system is Staph.aur. FK 422. Nature of the experiment: MIC of the compound of Example 1 compared with norfloxacin, Staph.aur. FK 422. The class given is cell-based. The conditions noted are these: Staphylococcus aureus.
Source text: as §1

Experiment [1] concerns Gram-positive and Gram-negative organisms. As to conditions: J. Med. Chem. 23, 1358 (1980); cited from earlier work.
Setting [2] is: C14, pH 7.1, E. coli C14, head prints only pH 7.1.
The mark [3] stands for this setting: C14, pH 7.1, E. coli C14, urine pH 7.1, 80% pooled human urine, 20% isosensitest medium.
The mark [4] stands for this setting: pH 7.1, Staph. 25151, head prints only pH 7.1.
The mark [5] stands for this setting: pH 7.1, Staph. 25151, urine pH 7.1, 80% pooled human urine, 20% isosensitest medium.

As for `O=C1CN(c2cc3c(cc2F)c(=O)c(C(=O)O)cn3C2CC2)CCN1` [Example 1, 1-cyclopropyl-6-fluoro-1,4-dihydro-4-oxo-7-(3-oxo-1-piperazinyl)-3-quinolinecarboxylic acid], the minimal inhibitory concentration (MIC) worked out at 0.25 µg/mL (≈ 0.724 µM) in the experiment with E. coli C14 (setting [2]); 0.25 µg/mL (≈ 0.724 µM) in the experiment with E. coli C14 (setting [3]); 0.25 µg/mL with Staph. 1756; 0.5 µg/mL in the experiment on Staph. 133; 0.5 µg/mL (≈ 1.45 µM) in the experiment with Staph. 25151 (setting [4]); 0.25 µg/mL (≈ 0.724 µM) in the experiment with Staph. 25151 (setting [5]). The MIC in the experiment on Staph.aur. FK 422 is 0.5 µg/mL.
With `CCn1cc(C(=O)O)c(=O)c2cc(F)c(N3CCNCC3)cc21` [Norfloxacin, 1-ethyl-6-fluoro-1,4-dihydro-4-oxo-7-(1-piperazinyl)-3-quinolinecarboxylicacid], the antibacterial properties entry in experiment [1] is “has antibacterial properties”. The minimum inhibitory concentration (MIC) against E. coli C14 (setting [2]) worked out at 0.5 µg/mL (≈ 1.57 µM); against E. coli C14 (setting [3]), 4 µg/mL (≈ 12.5 µM); in the experiment with Staph. 1756, 2 µg/mL; in the experiment on Staph. 133 it was 1 µg/mL; against Staph. 25151 (setting [4]) it was 4 µg/mL (≈ 12.5 µM); against Staph. 25151 (setting [5]) it was 4 µg/mL (≈ 12.5 µM). The minimum inhibitory concentration (MIC) in the experiment on Staph.aur. FK 422 amounted to 2 µg/mL.
